Assay results taken from patent US5821046A, “RNA oligonucleotides that bind HIV tat protein” (RiboTargets Holdings PLC, priority 1990, dated 1998).
“And” between values parts separate entries of the source, which are not always exact repeats. Equal values may be shown once. Read-outs that look alike come from different tables or passages of the source.

Experiments:
HIV-1 tat protein = experiment: direct filter binding assay of tat to TAR RNA (saturation binding, Scatchard analysis); settings: for Kd: direct filter binding, HIV-1 TAR from saturation binding/Scatchard plot, mutants estimated from half-maximal binding, read-out: Kd (dissociation constant of tat binding); for affinity of tat binding compared with wild type: gel retardation and filter binding assays (data not shown)
Experimental: The results shown graphically in FIG. 4 are from experiments in which binding reactions (500 ul) contained 40 nMolar^32 P uniformly radiolabelled TAR RNA at a specific activity of 100,000 Ci/mole; 0.5 ug calf thymus DNA; 0.2 ug yeast TRNA; 40 units RNAsin (Promega); 50mm Tris-HCl pH 7.9 and 20 mM KCl. Reaction mixtures were set up on ice and increasing amounts of HIV-1 tat protein were added and the reaction mixtures were filtered through prewashed nitrocellulose filters (Millipore 0.45 uM pore size). The filters were dried and counted by liquid scintillation counting. The fraction of radiolabeled RNA bound was plotted against HIV-1 tat concentration.
Binding was measured by a filter-binding assay as described below under "Method", using monomeric tat protein prepared by CNBr cleavage of a human growth hormone-tat fusion protein expressed in E. coli. Reactions for saturation binding contained labeled TAR RNA [SEQ ID NO: 1] or antisense TAR RNA [SEQ ID NO: 6] at 10 nm and between 0 to 300 nM purified tat protein. Antisense TAR RNA was used as a control, since antisense TAR is unable to form stable complexes with tat in gel-retardation assays (Dingwall et al., 1989).
The stoichiometry of the tat/TAR interaction was determined by varying the TAR RNA concentrations over a wide range, while keeping the tat protein concentration constant near the Kd. For this Scatchard analysis, the tat protein concentration was held constant at 40 nM and the RNA concentration was varied between 7nM and 320 nM. The total amount of labeled RNA was kept constant in the binding reactions, but the specific activity of the RNA was varied. […]
Tat protein was prepared either from beta-galactosidase-tat fusion proteins (6) or from human growth-hormone-tat fusion proteins (85) using an improved method. In brief, inclusion body pellets containing the fusion protein were solubilized in 7M GdHCl, 50 mM Tris-HCl pH8.0, 2 mM EDTA, 2mM DTT and the fusion protein was purified to near homogeneity by ion-exchange chromatography on Q-Sepharose and S-Sepharose (Pharmacia) in buffers containing […], 50 mM Tris-HCl pH8.0, 2mM EDTA, 2mM DTT. The cysteine residues were protected by disulphide-exchange with 20 mM 2-hydroxyethyldisulphide (86), and the protein was cleaved by cyanogen bromide (6). The basic tat protein was then separated from the acidic human growth hormone peptides by ion-exchange chromatography on Q-Sepharose and S-Sepharose in 6M Urea. The protecting groups were then removed from the protein by addition of 10 mM DTT and the protein refolded by stepwise dialysis against 6 m Urea, 5M Urea,3M Urea, 1M Urea and 0M Urea in a buffer containing 50 mM Tris-HCl pH8.0, 100 uM DTT, 10 uM ZnCl2 Tat protein refolded in this manner elutes as a monomer from Superose 12 columns (Pharmacia) and migrates as a single band on polyacrylamide gels. Protein prepared by both methods behaved comparably in binding assays.
A wide variety of parameters affecting the binding of tat protein to TAR RNA were studied and binding conditions were optimized. Binding of tat to TAR has a distinct pH optimum at pH 8.0, but good binding is observed between pH 7.5 and pH 8.5. Tat/TAR complexes are very sensitive to ionic strength. […] Addition of Zn^+2, Cd^+2, Ca^+2, Mg,^+2, Fe^+2 or Fe^+3 ions to the reaction mixtures […]. However, the binding reaction is sensitive to EDTA at greater than 0.1 mM EDTA. Complex formation is also somewhat temperature sensitive. Optimal binding is observed at 0°C. Between 15° C. and 30° C. there is a 30% reduction in complex formation. […]

[1] = system: tat-dependent promoter activity of viral LTR carrying the TAR sequence; experiment: trans-activation CAT assay, test plasmids transfected into HeLa/C63/tat cells; assay type: cell-based, HeLa/C63/tat (clone 9) cells
Text: If tat binding to TAR is necessary for trans-activation, then viral LTRs carrying TAR sequences with low affinities for tat should always have reduced tat-dependent promoter activity in vivo. Site-directed mutagenesis experiments on TAR have shown that trans-activation requires sequences in both the U-rich bulge (10, 11) and the loop sequence (12, 27, 28). These observations have now been extended, using TAR mutations with known affinities for tat in transfection experiments, the results of which are shown in FIG. 8. The experiments used either HeLa cells (FIG. 8a-d) or a constitutive producer of tat, HeLa/C63/tat cells (FIG. 8e-f).
The TAR sequences depicted in FIG. 3 [SEQ ID NO: 1-11] were introduced into a test plasmid, pD5-3-3, which carries a LTR and approximately 300 bases of 5' flanking sequences derived from the infectious proviral clone NL4 (29). The bacterial chloramphenicol acetyltransferase (CAT) gene and SV40 intron and terminator sequence from pSV2-CAT (30) was inserted downstream of TAR by cloning into the HindIII site at +77. Trans-activation was measured either by cotransfection of HeLa cells with the test plasmids and the tat expression plasmid pC63-4-1 (6) (panels a-d in FIG. 10), or by transfection of the test plasmids alone into HeLa/C63/tat (clone 9) cells (panels e-h).
In these experiments, cells were plated at a density of 3×10^5 in a T25 flask and transfected by the calcium phosphate method (31). Transfections in HeLa cells used 8.0 ug of test plasmid, 1.0 to 10 ug of pC63-4-1 plasmid and 10 ug of calf thymus carrier DNA. Transfections of the HeLa/C63/tat (clone 9) cells used 0.5 to 10 ug of test plasmid and 10 ug of calf thymus carrier DNA. The HeLa/C63/tat (clone 9) cells were prepared by infection of HeLa cells with helper-free amphotrophic C63-4-1 MoMuLV-tat virus. Following selection in 2mg/ml G418 individual clones were expanded and the expression of tat protein confirmed by immunoprecipitation with monoclonal antibodies to tat (6). Cell extracts were prepared at 48h post-transfection in 150 ul lysis buffer (0.2% NP40, 20 mM Tris pH 8.0, 4mM MgCl2), heat inactivated at 65° C. for 10 min and stored at -20° C. To ensure that CAT activity was measured in the linear range of the assay (30), at less than 50% conversion of chloramphenicol in its acetylated forms, for each transfection, three different aliquots containing from 5 to 70 ul extract were assayed for CAT activity. Reactions contained extract diluted with lysis buffer to a final volume of 70 ul, 10 ul AcCoA (2.5mg/ml in lysis buffer); 0.5 ul (14C) - chloramphenicol (60 mCi/m mol) and were incubated for 45 min at 37° C. Reaction products were extracted with ethylacetate, separated by thin layer chromatography on silica plates and bands were counted in scintillation fluid to calculate the chloramphenicol conversion efficiency per 10 ul of extract.

Substance	Kd (HIV-1 tat protein)	CAT expression [1]	affinity of tat binding compared with wild type (HIV-1 tat protein)	further results
G to U (loop): TAR RNA in which residues 32-34 are changed to uridine (U) (GGGUCUCUCUGGUUAGACCAGAUUUGAGCCUUUUAGCUCUCUGGCUAACUAGGGAACCC; RNA, backbone not given here)	25 nM	significant CAT activity observed at high plasmid concentrations	–	–
ASS: anti-sense lower stem, sense upper stem and loop sequences (GGGUUCCCUAGUUAGACCAGAUUUGAGCCUGGGAGCUCUCUGGCUAACCAGAGAGACCC; chemistry not given here)	–	wild-type expression levels	bind tat with wild-type affinities	–
SSA: sense stem, antisense loop sequence (GGGUCUCUCUGGUUAGACCAGAUUUGAGCUCCCAGGCUCUCUGGCUAACUAGGGAACCC; chemistry not given here)	–	no significant increase over basal levels of CAT expression	bind tat with wild-type affinities	–
delta U (bulge): TAR RNA in which residues 23-25 are deleted (GGGUCUCUCUGGUUAGACCAGAGAGCCUGGGAGCUCUCUGGCUAACUAGGGAACCC; RNA, backbone not given here)	> 70 nM	null phenotypes	–	–
G28 to C28: TAR point mutation expected to disrupt the top of the TAR stem/loop structure (GGGUCUCUCUGGUUAGACCAGAUUUGACCCUGGGAGCUCUCUGGCUAACUAGGGAACCC; chemistry not given here)	> 100 nM	null phenotypes	–	Kd (HIV-1 tat protein; listed as SEQ ID NO: 10): 100 nM
SAS: anti-sense upper stem flanked by sense lower stem and loop sequences (GGGUCUCUCUGGUUAGCCAGAGAGCCUGGGAGCUCAAAUCUGGUCUAACUAGGGAACCC; chemistry not given here)	–	no significant increase over basal levels of CAT expression	bind tat with significantly reduced affinities	–
HIV-1 TAR (UUU): full length HIV-1 TAR RNA of 59 residues prepared by transcription, wild type, UUU bulge (GGGUCUCUCUGGUUAGACCAGAUUUGAGCCUGGGAGCUCUCUGGCUAACUAGGGAACCC; unmodified RNA) [reference compound]	12 nM	–	–	stoichiometry v, moles of RNA bound per mole of protein (HIV-1 tat protein; Scatchard analysis, 40 nM tat, RNA 7-320 nM): approximately one; Kd (HIV-1 tat protein; listed as HIV-1 TAR RNA): 12 nM; Kd (HIV-1 tat protein; listed as TAR RNA): 12 nM; Kd (HIV-1 tat protein; listed as TAR): 11.8 nM and 12 nM
